Reference: patent US11000627B2, “Treatment of implants with phosphonic acid compounds” (Nano Bridging Molecules SA, priority 2016, dated 2021)
Read-outs that look alike come from different tables or passages of the source. Marks after values point to notes of the source that are not given here.

Legend:
Type in all cases: physicochemical
[1] = XPS phosphorus over metal ratio on Titanium grade 4 cylinders
Method: XPS analyses were performed on an Axis Ultra spectrometer from Kratos (Kratos, Manchester, U.K.) equipped with a concentric hemispherical analyzer and using a monochromatized aluminum anode X-ray source (Al Kα1,2 1486.6 eV, full width at half maximum, fwhm=0.85 eV, 15 kV, 150 W). The samples were investigated under ultrahigh vacuum conditions: 10^−8-10^−7 Pa. Spectra were taken at a 90° takeoff angle with respect to the surface. A sample area of 300×700 μm^2 or 700×700 μm^2 was analyzed with a pass energy of 80.0 eV for survey scans. The spectrometer was calibrated by using Cu 2p3/2 (932.7 eV) and Au 4f7/2 (84.0 eV) signals. Surface sensitivity factors used to determine the atomic concentrations were those of the instrument. Spectra were peak fitted after background subtraction by assuming a Gaussian/Lorentzian (90-70/10-30) peak shape. All peaks between 0 eV to 1200 eV were inspected.
Two Titanium grade 4 cylinders (bulk composition atomic concentration Titanium 100%; length 6.0 mm, diameter 2.4 mm) were provided with a roughened surface, produced by sand blasting and acid etching according to industry standards. The cylinders were immersed in 6 ml of a 2% (v/v) aqueous solution of deconex 15 PF-x (which is a phosphate free, potassium hydroxide based standard cleaning agent). The solution was placed in an ultrasonic bath (output frequency 30 kHz) and sonicated at 65° C. for 15 min. The cylinders were removed from the cleaning agent solution and rinsed with water as follows: 2 times with 10 ml, swirling at room temperature; 4 times with 10 ml, sonicating for 2 min at 65° C.; 1 time with 10 ml, swirling at room temperature. The cylinders were then placed into 6 ml of a 0.7 mM aqueous solution of 1,1,3,3-propane tetraphosphonic acid. The solution was placed in the ultrasonic bath and sonicated at 65° C. for 15 min. The cylinders were rinsed with water as follows: 2 times with 10 ml, swirling at room temperature; 1 time with 10 ml, sonicating for 2 min at 65° C.; 1 time with 10 ml, swirling at room temperature. The cylinders were dried in a desiccator over P2O5 and under vacuum (ca 20 mbar) for at least 3 hours.
Two Titanium grade 4 cylinders (bulk composition atomic concentration Titanium 100%; length 6.0 mm, diameter 2.4 mm) were provided with a roughened surface, produced by sand blasting and acid etching according to industry standards. The cylinders were immersed in 6 ml of a 2% (v/v) aqueous solution of deconex 15 PF-x (which is a phosphate free, potassium hydroxide based standard cleaning agent). The solution was placed in an ultrasonic bath (output frequency 30 kHz) and sonicated at room temperature for 15 min. The cylinders were removed from the cleaning agent solution and rinsed with water as follows: 2 times with 10 ml, swirling at room temperature; 4 times with 10 ml, sonicating for 2 min at room temperature; 1 time with 10 ml, swirling at room temperature. The cylinders were then placed into 6 ml of a 0.7 mM aqueous solution of 1,1,3,3-propane tetraphosphonic acid. The solution was swirled thoroughly and left to stand at room temperature for 15 min. The cylinders were rinsed with water as follows: 2 times with 10 ml, swirling at room temperature; 1 time with 10 ml, sonicating for 2 min at room temperature; 1 time with 10 ml, swirling at room temperature. The cylinders were dried in a desiccator over P2O5 and under vacuum (ca 20 mbar) for at least 3 hours.

[2] = XPS phosphorus over metal ratio on Titanium grade 5 dental implant (prospective data); settings: 0.5 mM, sonicated 65° C. 10 min, Metal = Ti2p + Al2s + V2p
Method: A Titanium grade 5 dental implant (bulk composition atomic concentration Titanium 90%, Aluminum 6%, Vanadium 4%; length 11.0 mm, diameter 3.75 mm) is provided with a roughened surface, produced by sand blasting and acid etching according to industry standards. The dental implant is immersed in 30 ml of a 2% (v/v) aqueous solution of deconex 15 PF-x (which is a phosphate free, potassium hydroxide based standard cleaning agent). The solution is placed in an ultrasonic bath (output frequency 30 kHz) and sonicated at 65° C. for 15 min. The implant is removed from the cleaning agent solution and rinsed with water as follows: 2 times with 30 ml, swirling at room temperature; 4 times with 30 ml, sonicating for 2 min at 65° C.; 1 time with 30 ml, swirling at room temperature. […] The solution is placed in the ultrasonic bath and sonicated at 65° C. for 10 min. The implant is rinsed with water as follows: 2 times with 10 ml, swirling at room temperature; 1 time with 10 ml, sonicating for 2 min at 65° C.; 1 time with 10 ml, swirling at room temperature. The dental implant is dried in a desiccator over P2O5 and under vacuum (ca 20 mbar) for at least 3 hours. The samples are analyzed by X-ray photoelectron spectroscopy (XPS). Same analysis conditions as described in Example 8 are used.

[3] = as above; settings: room temperature comparative process
[4] = Concentration 2 mM, sonicated 65° C. 15 min, Metal = Ti2p

Compound	Phosphorus/Metal [1]	Phosphorus/Metal (surface treatment as described herein above) [2]	Phosphorus/Metal (surface treatment as described in Comp. Example 6) [3]	Phosphorus/Metal [1, 4]	Phosphorus/Metal ([1]; Concentration 1 mM, sonicated 65° C. 15 min, Metal = Ti2p)
O=P(O)(O)CP(=O)(O)O [Methylene-1,1-diphosphonic acid]	0.10^b	–	–	–	–
O=P(O)(O)CCCP(=O)(O)O [PA-2, propane-1,3-diphosphonic acid]	–	0.16-0.20	0.05-0.11	–	–
CC(C)(C)P(=O)(O)O [PA-3, tert-butyl phosphonic acid]	–	0.16-0.20	0.05-0.11	0.02^b	–
C=CCP(=O)(O)O [PA-4, 1-propene-3-phosphonic acid]	–	0.16-0.20	0.05-0.11	–	–
O=P(O)(O)C1CCCCC1 [PA-5, 1-cyclohexyl phosphonic acid]	–	0.16-0.20	0.05-0.11	–	–
O=P(O)(O)c1ccccc1 [PA-6, phenyl-1-phosphonic acid]	–	0.16-0.20	0.05-0.11	0.03^b	–
NC(CP(=O)(O)O)C(=O)O (centres unmarked) [PA-8, 2-amino-3-phosphonopropionic acid]	–	0.16-0.20	0.05-0.11	–	–
O=C(CP(=O)(O)O)Oc1ccccc1C(=O)O [PA-9, 2-(2-phosphonoacetoxy)benzoic acid]	–	0.16-0.20	0.05-0.11	–	–
CC(O)(P(=O)(O)O)P(=O)(O)O [PA-10, etidronic acid, reference compound]	–	0.16-0.20	0.05-0.11	–	0.09^b
